Laboratory results: patent US9751881B2, “Inhibitors of the renal outer medullary potassium channel” (Merck Sharp & Dohme Corp., priority 2013, dated 2017)
Structures can show the parent of a compound that is named as a salt.

Target: hROMK (hKir1.1) (Homo sapiens (Human), UniProt P48048)
Assay: Thallium Flux Assay (ROMK channel functional thallium flux, FLIPR-Tetra)
Format: cell-based
Details: HEK293 cells stably expressing hROMK (hKir1.1); unit not given in Table 4 (IC50 potencies less than 1 μM); read-out: ROMK TI IC50
Experimental: Cell Culture Conditions—HEK293 cells stably expressing hROMK (hKir1.1) were grown at 37° C. in a 10% CO2 humidified incubator in complete growth media: Dulbecco's Modified Eagle Medium supplemented with non-essential amino acids, Penicillin/Streptomycin/Glutamine, G418 and FBS. At >80% confluency, the media was aspirated from the flask and rinsed with 10 mL calcium/magnesium-free PBS. […] To dislodge the cell, the side of the flask was gently banged with one's hand. The cells completely titrated and then the cells were transferred to 25 mL complete media, centrifuged at 1,500 rpm for 6 min followed by resuspension in complete growth media and determine cell concentration. […] Under ideal growth conditions and appropriate tissue culture practices, this cell line is stable for 40-45 passages.
FluxOR Kit Components (Invitrogen F10017)
• FluxOR™ Reagent (Component A) • FluxOR™ Assay Buffer (Component B)—10× Concentrate • PowerLoad™ Concentrate (Component C)—100× Concentrate • Probenecid (Component D)—Lyophilized sample is kept at −20° C. Water soluble, 100× after solubilization in 1 mL water. […] Store at 4° C. • Thallium sulfate (Tl2SO4) Concentrate (Component G)—50 mM in water. […] Can be stored at room temperature • Stimulant Buffer (prepared at 5× final concentration in 1× FluxOR™Chloride-Free Buffer): 7.5 mM thallium sulfate and 0.75 mM potassium sulfate (to give a final assay concentration of 3 mM Thallium/0.3 mM potassium). Store at 4° C. when not in use. If kept sterile, this solution is good for months.
• 1. Seed HEK-hKir1.1 cells (50 μl at 20,000 cells/well) in 384-well PDL coated Microplates • 2. Allow cells to adhere overnight in humidified 37° C./10% CO2 incubator • 3. Completely remove cell growth media from microplate and replace with 25 μl loading buffer • 4. Incubate Microplate at room temperature, protected form light, for 90 min • 5. Remove loading buffer and replace with 25 μl 1× Assay Buffer±test compound. • 6. Incubate microplate at room temperature, protected from light, for 30 min • 7. […] Excitation=400 nm, Emission=460 & 580 nm. Collect data for ˜10 min.
Data Calculation—The fluorescence intensity of wells containing 3 μM of a standard control ROMK inhibitor of the present invention was used to define the ROMK-sensitive component of thallium flux. Fluorescence in the presence of test compounds was normalized to control values to provide % fluorescence change.

hROMK (hKir1.1), sequence (P48048 whole entry): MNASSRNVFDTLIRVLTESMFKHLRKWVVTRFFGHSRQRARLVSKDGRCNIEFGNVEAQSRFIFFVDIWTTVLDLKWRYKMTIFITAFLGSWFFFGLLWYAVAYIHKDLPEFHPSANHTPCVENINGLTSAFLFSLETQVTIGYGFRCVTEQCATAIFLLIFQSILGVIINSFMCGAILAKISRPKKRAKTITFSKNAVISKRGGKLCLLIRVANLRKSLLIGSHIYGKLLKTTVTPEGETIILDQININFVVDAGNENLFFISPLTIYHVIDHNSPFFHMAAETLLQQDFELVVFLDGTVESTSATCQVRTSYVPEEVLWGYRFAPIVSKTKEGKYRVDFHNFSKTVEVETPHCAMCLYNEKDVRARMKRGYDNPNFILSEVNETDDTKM

Cc1nc(N2CC3(CCN(C[C@H](O)c4ccc5c(c4C)COC5=O)CC3)CC2=O)ccc1-n1cnnn1 [Example 73, 8-[(2R)-2-Hydroxy-2-(4-methyl-1-oxo-1,3-dihydro-2-benzofuran-5-yl)ethyl]-2-[6-methyl-5-(1H-tetrazol-1-yl)pyridin-2-yl]-2,8-diazaspiro[4.5]decan-3-one hydrochloride]
IC50: 359 nM

Cc1c([C@@H](O)CN2CCC3(CC2)OCCN(c2ccc(S(C)(=O)=O)cn2)C3=O)ccc2c1COC2=O [Example 97, (R)-9-(2-Hydroxy-2-(4-methyl-1-oxo-1,3-dihydroisobenzofuran-5-yl)ethyl)-4-(5-(methylsulfonyl)pyridin-2-yl)-1-oxa-4,9-diazaspiro[5.5]undecan-5-one]
IC50: 187 nM

Cc1c([C@@H](O)CN2CCC3(CC2)CCN(c2ccc(-n4ccnn4)cc2)C3)ccc2c1COC2=O [Example 80]
IC50: 63.5 nM

Cc1c([C@@H](O)CN2CCC3(CC2)CC(=O)N(c2ncc(S(C)(=O)=O)s2)C3)ccc2c1COC2=O [Example 37, (R)-8-(2-Hydroxy-2-(4-methyl-1-oxo-1,3-dihydroisobenzofuran-5-yl)ethyl)-2-(5-(methylsulfonyl)thiazol-2-yl)-2,8-diazaspiro[4.5]decan-3-one]
IC50: 87.5 nM

Cc1c([C@@H](O)CN2CCC3(CC2)CCN(c2ccc(C#N)cn2)C3=O)ccc2c1COC2=O [Example 5, 6-{8-[(2R)-2-hydroxy-2-(4-methyl-1-oxo-1,3-dihydro-2-benzofuran-5-yl)ethyl]-1-oxo-2,8-diazaspiro[4.5]dec-2-yl}pyridine-3-carbonitrile]
IC50: 37 nM

COc1cc(N2CC3(CCN(C[C@H](O)c4ccc5c(c4C)COC5=O)CC3)OCC2=O)ncc1C#N [Example 102, (R)-6-(9-(2-Hydroxy-2-(4-methyl-1-oxo-1,3-dihydroisobenzofuran-5-yl)ethyl)-3-oxo-1-oxa-4,9-diazaspiro[5.5]undecan-4-yl)-4-methoxynicotinonitrile]
IC50: 16.7 nM

Cc1c([C@@H](O)CN2CCC3(CC2)CCN(c2cc(C#N)ccn2)C3)ccc2c1COC2=O [Example 13, (R)-2-(8-(2-Hydroxy-2-(4-methyl-1-oxo-1,3-dihydroisobenzofuran-5-yl)ethyl)-2,8-diazaspiro[4.5]decan-2-yl)isonicotinonitrile]
IC50: 26 nM

Cc1c([C@@H](O)CN2CCC3(CC2)CCN(c2ccc(S(C)(=O)=O)cn2)C3=O)ccc2c1COC2=O [Example 96, (R)-8-(2-Hydroxy-2-(4-methyl-1-oxo-1,3-dihydroisobenzofuran-5-yl)ethyl)-2-(5-(methylsulfonyl)pyridin-2-yl)-2,8-diazaspiro[4.5]decan-1-one]
IC50: 86 nM

Cc1c([C@@H](O)CN2CCC3(CC2)CC(=O)N(c2ccc(-n4cnnn4)nc2)C3)ccc2c1COC2=O [Example 72, 8-[(2R)-2-Hydroxy-2-(4-methyl-1-oxo-1,3-dihydro-2-benzofuran-5-yl)ethyl]-2-[6-(1H-tetrazol-1-yl)pyridin-3-yl]-2,8-diazaspiro[4.5]decan-3-one hydrochloride]
IC50: 100 nM

C=CCN[C@@H](CN1CCC2(CC1)CCN(c1ccc(C#N)cn1)C2)c1ccc2c(c1C)COC2=O [Example 78, (R)-6-(8-(2-(allylamino)-2-(4-methyl-1-oxo-1,3-dihydroisobenzofuran-5-yl)ethyl)-2,8-diazaspiro[4.5]decan-2-yl)nicotinonitrile]
IC50: 70.6 nM

Cc1c(C(O)CN2CCC3(CC2)CCN(c2nccnc2C#N)CC3)ccc2c1COC2=O (stereo not shown) [Example 110]
IC50: 135 nM

Cc1c([C@@H](O)CN2CCC3(CCCN(c4ncc(-n5cnnn5)cn4)C3)CC2)ccc2c1COC2=O [Example 43, (R)-5-(2-(2-(5-(1H-tetrazol-1-yl)pyrimidin-2-yl)-2,9-diazaspiro[5.5]undecan-9-yl)-1-hydroxyethyl)-4-methylisobenzofuran-1(3H)-one]
IC50: 37 nM

Cc1cc(N2CCC3(CCN(C[C@H](O)c4ccc5c(c4C)COC5=O)CC3)C2)cnc1C#N [Example 81]
IC50: 10.1 nM
